Test results taken from patent publication EP0176369A2, “7-(Alpha-(4-oxo-2-azetidinyl(or -azetidinylalkyl)-oxyimino)-alpha-(2-amino-4-thiazolyl)acetamido]-3- substituted-Delta 3-cephem-4-carboxylic acid compounds and salts thereof, their production, and medicaments containing them” (YAMANOUCHI PHARMACEUTICAL CO. LTD., priority 1984, dated 1986).
In brackets after ≈: the same amount, converted by molar mass.

Key:
Experiment in all cases: Antibacterial activity (minimum effective inhibitory concentration)
Assay type in all cases: cell-based
[1] = system: Sal. enteritidis 1891; conditions: Salmonella enterica, read-out: minimum effective inhibitory concentrations
Description: (§1) Antibacterial activities (minimum effective inhibitory concentrations) of compounds of formula I (taken from the following Examples) are shown in the following Table.

[2] = system: Staph. epidermidis IIb 866; conditions: Staphylococcus epidermidis, IIB866, read-out: minimum effective inhibitory concentrations
Description: as §1

[3] = system: Ps. aeruginosa NCTC 10490; conditions: Pseudomonas aeruginosa, NCTC10490, read-out: minimum effective inhibitory concentrations
Description: as §1

[4] = system: Serr. marcescens II D 620; conditions: Serratia marcescens, IID620, read-out: minimum effective inhibitory concentrations
Description: as §1

[5] = system: Kleb. pneumoniae ATCC 10031; conditions: Klebsiella pneumoniae, ATCC10031, read-out: minimum effective inhibitory concentrations
Description: as §1

Compound	MIC [1] [µg/mL]	MIC [2] [µg/mL]	MIC [3] [µg/mL]	MIC [4] [µg/mL]	MIC [5] [µg/mL]
Nc1nc(C(=NOC2CC(=O)N2)C(=O)NC2C(=O)N3C(C(=O)O)=C(CSc4nnnn4CCO)CSC23)cs1 (centres unmarked) [Example 2, sodium (Z)-7[-(2-amino-4-thiazolyl)-∝-(4-oxo-2-azetidingloxyiino)acetamido]-3-[1-(2-gtdrixy-ethyl)-5-tetrazolyl]thiomethyl-^3-cephem-4-carboxcylate]	0.1	0.78	0.1	0.1	0.05
Cn1nnnc1SCC1=C(C(=O)O)N2C(=O)C(NC(=O)C(=NOC3CC(=O)N3)c3csc(N)n3)C2SC1 (stereo not drawn) [Example 1, sodium (Z)-7-[α-(4-oxo-2-azptidinyloxyimino)-4-(2-amino-4-thiazolyl)acet-amido]-3-(1-methyl-5-tetrazolyl)thiomethyl-Δ^3-cephem-4-carboxylate]	0.025	0.2	0.78	0.05	0.025
Nc1ccc[n+](CC2=C(C(=O)[O-])N3C(=O)C(NC(=O)C(=NOC4CC(=O)N4)c4csc(N)n4)C3SC2)c1 (stereo not drawn) [Example 4, (Z)-7-[α(-2-amino-4-thiazolyl) -α-(4-oxo-2-azetidinyloxyimino)acetamido]-3-(3-amino-pyridiniomethyl)-^3-cephem-4-carboxylate]	0.1 (≈ 0.184 µM)	0.2 (≈ 0.367 µM)	0.78 (≈ 1.43 µM)	0.1 (≈ 0.184 µM)	0.1 (≈ 0.184 µM)
C[N+]1(CC2=C(C(=O)[O-])N3C(=O)C(NC(=O)C(=NOC4CC(=O)N4)c4csc(N)n4)C3SC2)CCCC1 (centres unmarked) [Example 7, (Z)-7-[ -(2-amino-4-thiazolyl)- -(4-oxo-2-azetidinyloxyimino)-acetamido]-3-(1-methyl-1-pyrrolidiniomethyl)-3-cephem-4-carboxylate]	0.05 (≈ 0.0934 µM)	0.2 (≈ 0.373 µM)	0.39 (≈ 0.728 µM)	0.1 (≈ 0.187 µM)	0.05 (≈ 0.0934 µM)
